This note sets out measurements from patent publication US20140248212A1, “NON-IMMUNOGENIC POSITRON EMISSION TOMOGRAPHY REPORTER GENE SYSTEMS” (THE REGENTS OF THE UNIVERSITY OF CALIFORNIA, priority 2011, published 2014).

Entries after “also recorded” stand apart in the source; their conditions may differ.

Experiment [1] concerns TK2-N93D/L109F-expressing L1210 cells. In words: L-18F-FMAU uptake assay, transduced L1210 cells (TK2-N93D/L109F). It is filed as cell-based, murine. The protocol:
(§1) The L1210 cell line (see, e.g. Jordheim, L. P., et al. (2004) Clin. Cancer Res. 10, 5614-5621) was a gift. Cells were cultured at 5% v/v CO2 and 37° C. in RPMI supplemented with 5% v/v FCS. Murine stem cell virus (pMSCV)-based helper-free retroviruses encoding the TK2 mutants (or sr39tk), an internal ribosomal entry site, and the yellow fluorescent protein (YFP) were produced by transient co-transfection of the amphotrophic retrovirus packaging cell line Phoenix (American Type Culture Collection, SD 3443) (see, e.g. Hawley, R. G., et al. (1994) Gene. Ther. 1, 136-138). L1210 cells underwent spinfection with the pMSCV-TK2 mutants-internal ribosomal entry site-YFP retrovirus with 2 μg/ml Polybrene (1000×g, 120 min, 37° C.). L1210 cells expressing various PRGs, (L1210-PRG) were FACS-sorted to ensure that each population had equivalent levels of PRG expression.
(§2) L1210 cells transduced with the indicated PET reporter genes (L1210-PRG) were seeded at a density of 500,000 cells/well in 24-well plates. 5 μCi of L-^18F-FMAU were added to the L1210-PRG cells simultaneously with the indicated amounts of D-thymidine (D-dT) at a final volume of 1 ml/well. After 1 h at 37° C., cells were harvested and washed four times with ice-cold PBS. Radioactivity was measured using a gamma counter.

The subject of experiment [2] is L1210 tumors expressing TK2-N93D/L109F. Nature of the experiment: microPET/CT of SCID mice bearing L1210-PRG tumors (TK2-N93D/L109F). It is filed as in vivo. The protocol:
Animal studies were approved and carried out according to specific guidelines. C57/BL6 mice were injected with the indicated probe and underwent micro-PET/CT analyses at 1- and 3-h post probe injection (Inveon, Siemens Medical Solutions USA Inc.; microCAT; Imtek Inc.). For tumor imaging studies, SCID mice were injected subcutaneously on day −7 in the right and left flanks with 1×10^6 L1210-PRG-expressing cells in 50% v/v phosphate-buffered saline and 50% v/v Matrigel™ (BD Biosciences). For imaging experiments, mice were kept warm and under gas anesthesia (2% v/v isoflurane) and were injected intravenously with 200 μCi of ^18F-labeled probes. A 3-h interval was allowed between probe administration and microPET/CT scanning Static microPET images were acquired for 600 s. Image data were evaluated in three-dimensional histograms and reconstructed with a zoom factor of 2.1 using three-dimensional ordered set expectation maximization (OSEM) with 2 iterations followed by MAP (maximum a posteriori) reconstruction with 18 iterations (beta=0.1). Images were analyzed using OsiriX Imaging Software Version 3.8.
Mice implanted with L1210 cells expressing TK2-based PRGs were scanned by microPET/CT using L-^18F-FMAU (FIG. 30A). For comparison, mice implanted with L1210 cells expressing HSV1-sr39tk were scanned by microPET/CT using ^18F-FHBG (FIG. 30B).

The subject of experiment [3] is TK2-L109F-expressing L1210 cells. Nature of the experiment: L-18F-FMAU uptake assay, transduced L1210 cells (TK2-L109F). In kind it is cell-based, murine. Particulars: in the presence of 5 μM D-dT. As for the experimental part: as §1, §2
Experiment [4] concerns TK2-N93D-expressing L1210 cells. Nature of the experiment: L-18F-FMAU uptake assay, transduced L1210 cells (TK2-N93D). It is filed as cell-based, murine. The source says:
To overcome the negative feedback limitation of TK2, a point mutation-N93D, was engineered. The work done by Piskur and colleagues on the structurally related Drosophila melanogaster deoxyribonucleoside kinase (see, e.g. Welin, M., et al. FEBS J 272:3733-3742, 2005) led one to predict that the N93D mutation would reduce the feedback inhibition of TK2 by dTTP. This prediction was confirmed by a comparison between the wild type (WT) and the TK2-N93D mutant in a kinase assay in which increasing concentrations of dTTP were added to inhibit TK2 enzymatic activity (FIG. 8B). We then determined whether the enhanced resistance to feedback inhibition translates into improved TK2-N93D catalytic activity towards the L-[^18F]FMAU substrate. The murine leukemic cell line L1210 was engineered to express the WT and mutated PRG. PRG-expressing L1210 cell lines were sorted to similar levels of gene expression, using enhanced yellow fluorescent protein (eYFP) as a co-linked fluorescent marker. […] It was also examined whether the expression of TK2-N93D had detrimental effects on cellular physiology (criterion 4 for PRGs). […] In contrast, sr39tk overexpression induced a 4-fold increase in dTTP pools (FIG. 9C). […] These findings provide evidence that the utility of sr39tk is limited not only by its immunogenicity but also by its effects on normal cellular physiology.
The L1210 cell line (see, e.g. Jordheim, L. P., et al. (2004) Clin. Cancer Res. 10, 5614-5621) was a gift. Cells were cultured at 5% v/v CO2 and 37° C. in RPMI supplemented with 5% v/v FCS. […]
L1210 cells transduced with the indicated PET reporter genes (L1210-PRG) were seeded at a density of 500,000 cells/well in 24-well plates. […] Radioactivity was measured using a gamma counter.

For `Cc1cn([C@H]2O[C@@H](CO)[C@H](O)[C@H]2[18F])c(=O)[nH]c1=O` [L-^18F-FMAU, 2′-deoxy-2′-^18F-5-methyl-1-β-L-arabinofuranosyluracil], in experiment [1] (TK2-N5 (TK2-N93D/L109F)), the “in vitro uptake of 18F-L-FMAU compared to TK2-N0” value is “two-fold increase” and the “inhibition of uptake by thymidine compared to TK2-N0” value is on record as “less resistance to inhibition by thymidine”. Besides, in experiment [1] (absence of D-dT), the “L-18F-FMAU uptake, higher than that of TK2-L109F cells” value is recorded as roughly 4 times and the “L-18F-FMAU uptake, higher than that of TK2-N93D cells” value amounted to 1.5 times. Further, the “decrease of L-18F-FMAU uptake” value in experiment [1] (in the presence of 5 μM D-dT) is given as 47%. Also, in experiment [2] (L-18F-FMAU, 3 h post-injection), the “probe uptake in L1210 tumors” value came out at 19.9±1.5 % injected dose/g. For the same compound, the “L-18F-FMAU uptake, higher than that of TK2-N93D-expressing cells” value in experiment [2] (in vivo, FIG. 30C) worked out at 2.6 fold. Besides, in experiment [3], the “L-18F-FMAU uptake as percentage of the corresponding uptake for TK2-N93D/L109F” value worked out at 31% and the “decrease of L-18F-FMAU uptake” value was 37%. For the same compound, the “increase in L-18F-FMAU uptake relative to cells expressing WT TK2” value in experiment [4] (1 h uptake, FIG. 27C) is on record as 1.5 fold. Further, the “L-[18F]FMAU accumulation compared to WT TK2 transduced cells” value in experiment [4] (FIG. 8C) is “increased accumulation; also recorded: increased uptake”. The “decrease of L-18F-FMAU uptake” value in experiment [4] (in the presence of 5 μM D-dT) amounted to 75%.
